Experimental data published in US10363239B2, “Method for inhibiting growth of cancer cells” (Pain Therapeutics, Inc., priority 2013, dated 2019).
Read-outs that look alike come from different tables or passages of the source.

Legend:
[1] = biological target: FLNA pentapeptide of SEQ ID NO: 1 (Bn-VAKGL) (Homo sapiens, UniProt P21333); assay: FITC-NLX-based FLNA screening assay (inhibition of FITC-naloxone binding to Bn-VAKGL on streptavidin plates); conditions: 10 nM FITC-NLX
mu opiate receptor (MOR) = assay: MOR agonist activity using [35S]GTPγS binding assay in striatal membranes; assay type: biochemical; conditions: for MOR agonist activity ([35S]GTPγS binding), FLNA-Binding Compound as Agonist 1 μM + BFNA: 1 μM compound + 1 μM β-funaltrexamine
Procedure, shortened: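 Striatal membranes (200 μg) were preincubated 5 min at 30 °C in HEPES pH 7.5 with 100 mM NaCl, 1 mM MgCl2 and 0.5 nM [35S]GTPγS, then 5 min more with 0.1–10 μM compound. Gαo was immunoprecipitated and bound radioactivity counted by scintillation.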

[2] = FLNA-binding compound 0.01 μM, read-out: Percent Binding Inhibition
[3] = FLNA-binding compound 0.1 μM, read-out: Percent Binding Inhibition
[4] = FLNA-binding compound 1 μM, read-out: Percent Binding Inhibition
[5] = 0.1 μM compound relative to DAMGO
[6] = 1 μM compound + BFNA relative to DAMGO + BFNA
[7] = 1 μM compound relative to DAMGO
[8] = read-out: Percent Binding Inhibition, FLNA-binding compound 0.01 μM
[9] = read-out: Percent Binding Inhibition, FLNA-binding compound 0.1 μM
[10] = read-out: Percent Binding Inhibition, FLNA-binding compound 1 μM
[11] = Series C-1, 0.1 μM compound, relative to DAMGO
[12] = Series C-1, 0.1 μM compound, [35S]GTPγS binding to Gαo, striatal membranes
[13] = Series C-1, 1 μM compound + 1 μM β-FNA
[14] = Series C-1, 1 μM compound + β-FNA, relative to DAMGO + BFNA
[15] = Series C-1, 1 μM compound, relative to DAMGO
[16] = Series C-1, 1 μM compound, [35S]GTPγS binding to Gαo, striatal membranes
[17] = Series B, 0.1 μM compound, relative to DAMGO
[18] = Series B, 0.1 μM compound, [35S]GTPγS binding to Gαo, striatal membranes
[19] = Series B, 1 μM compound + 1 μM β-FNA
[20] = Series B, 1 μM compound + β-FNA, relative to DAMGO + BFNA
[21] = Series B, 1 μM compound, relative to DAMGO
[22] = Series B, 1 μM compound, [35S]GTPγS binding to Gαo, striatal membranes

Structure (SMILES) | MOR agonist activity ([35S]GTPγS binding), FLNA-Binding Compound as Agonist 0.1 μM (mu opiate receptor (MOR); 0.1 μM compound) [%] | % DAMGO (0.1 μM) (mu opiate receptor (MOR); [5]) [%] | MOR agonist activity ([35S]GTPγS binding), FLNA-Binding Compound as Agonist 1 μM (mu opiate receptor (MOR); 1 μM compound) [%] | MOR agonist activity ([35S]GTPγS binding), FLNA-Binding Compound as Agonist 1 μM + BFNA (mu opiate receptor (MOR)) [%] | % DAMGO + BFNA (mu opiate receptor (MOR); [6]) [%] | % DAMGO (1 μM) (mu opiate receptor (MOR); [7]) [%] | inhibition at 0.01 µM [1, 8] [%] | inhibition at 0.1 µM [1, 9] [%] | inhibition at 1 µM [1, 10] [%] | further results
CC1CCC(C(C)C)C(OCC(O)CN2CC(C)OC(C)C2)C1 (stereo not drawn) [Compound A0032-1] | 187.4 | 95.5 | 324.5 | 224.5 | 303.8 | 117.6 |  |  |  | inhibition at 0.01 µM [1, 2]: 35.6%; inhibition at 0.1 µM [1, 3]: 43.9%; inhibition at 1 µM [1, 4]: 50%
O=S(=O)(c1ccc(OC(F)(F)F)cc1)N1CCC2(CC1)OCCN2S(=O)(=O)c1ccc(OC(F)(F)F)cc1 [Compound C0006] |  |  |  |  |  |  | 41.6 | 46.8 | 51.8 | % DAMGO (0.1 μM) (mu opiate receptor (MOR); [11]): 70.6%; Concentration of FLNA-Binding Compound as Agonist 0.1 μM (mu opiate receptor (MOR); [12]): 121.5%; Concentration of FLNA-Binding Compound as Agonist 1 μM + BFNA (mu opiate receptor (MOR); [13]): 4.6%; % DAMGO + BFNA (mu opiate receptor (MOR); [14]): 7.2%; % DAMGO (1 μM) (mu opiate receptor (MOR); [15]): 73.8%; Concentration of FLNA-Binding Compound as Agonist 1 μM (mu opiate receptor (MOR); [16]): 204.0%
COc1cccc(S(=O)(=O)N2CCC3(CC2)OCCN3S(=O)(=O)c2cccc(OC)c2)c1 [Compound C0002] |  |  |  |  |  |  | 38.4 | 45.6 | 42.8 | % DAMGO (0.1 μM) (mu opiate receptor (MOR); [11]): 51.4%; Concentration of FLNA-Binding Compound as Agonist 0.1 μM (mu opiate receptor (MOR); [12]): 88.4%; Concentration of FLNA-Binding Compound as Agonist 1 μM + BFNA (mu opiate receptor (MOR); [13]): 3.9%; % DAMGO + BFNA (mu opiate receptor (MOR); [14]): 6.1%; % DAMGO (1 μM) (mu opiate receptor (MOR); [15]): 33.9%; Concentration of FLNA-Binding Compound as Agonist 1 μM (mu opiate receptor (MOR); [16]): 93.8%
O=C1CN(C2CCc3ccccc3C2)C2(CCN(S(=O)(=O)c3ccccc3)CC2)N1 (stereo not drawn) [C0136M(P5)] |  |  |  |  |  |  | 46.7 | 55.2 | 58.2 | % DAMGO (0.1 μM) (mu opiate receptor (MOR); Series C-2, 0.1 μM compound, relative to DAMGO): 93.4%; MOR agonist activity, percent [35S]GTPγS binding at the stated compound concentration (mu opiate receptor (MOR); Series C-2, 0.1 μM compound, [35S]GTPγS binding to Gαo, striatal membranes): 176.8%; MOR agonist activity, percent [35S]GTPγS binding at the stated compound concentration (mu opiate receptor (MOR); Series C-2, 1 μM compound + 1 μM β-FNA): 74.5%; % DAMGO + BFNA (mu opiate receptor (MOR); Series C-2, 1 μM compound + β-FNA, relative to DAMGO + BFNA): 153.6%; % DAMGO (1 μM) (mu opiate receptor (MOR); Series C-2, 1 μM compound, relative to DAMGO): 95.6%; MOR agonist activity, percent [35S]GTPγS binding at the stated compound concentration (mu opiate receptor (MOR); Series C-2, 1 μM compound, [35S]GTPγS binding to Gαo, striatal membranes): 237.3%
O=S(=O)(c1ccc(C(F)(F)F)cc1Br)N1CCC2(CC1)OCCN2S(=O)(=O)c1ccc(C(F)(F)F)cc1Br [Compound C0071] |  |  |  |  |  |  | 39.1 | 49.6 | 55.2 | % DAMGO (0.1 μM) (mu opiate receptor (MOR); [11]): 160.5%; Concentration of FLNA-Binding Compound as Agonist 0.1 μM (mu opiate receptor (MOR); [12]): 276.3%; Concentration of FLNA-Binding Compound as Agonist 1 μM + BFNA (mu opiate receptor (MOR); [13]): 177.1%; % DAMGO + BFNA (mu opiate receptor (MOR); [14]): 513.3%; % DAMGO (1 μM) (mu opiate receptor (MOR); [15]): 161.7%; Concentration of FLNA-Binding Compound as Agonist 1 μM (mu opiate receptor (MOR); [16]): 355.3%
COc1ccccc1CCC(=O)CC1c2c(cc3c(c2OC)OCO3)CC[N+]1(C)C (stereo not drawn) [Compound B0045] |  |  |  |  |  |  | 63.2 | 68.2 | 73.9 | % DAMGO (0.1 μM) (mu opiate receptor (MOR); [17]): 82.6%; MOR agonist activity, percent [35S]GTPγS binding at the stated compound concentration (mu opiate receptor (MOR); [18]): 129.3%; MOR agonist activity, percent [35S]GTPγS binding at the stated compound concentration (mu opiate receptor (MOR); [19]): 83.8%; % DAMGO + BFNA (mu opiate receptor (MOR); [20]): 257.1%; % DAMGO (1 μM) (mu opiate receptor (MOR); [21]): 83.4%; MOR agonist activity, percent [35S]GTPγS binding at the stated compound concentration (mu opiate receptor (MOR); [22]): 193.1%
COc1c2c(cc3c1C(CC(=O)/C=C/c1ccc(Cl)cc1)[N+](C)(C)CC3)OCO2 (stereo not drawn) [Compound B0019] |  |  |  |  |  |  | 34.3 | 41 | 49 | % DAMGO (0.1 μM) (mu opiate receptor (MOR); [17]): 59.7%; MOR agonist activity, percent [35S]GTPγS binding at the stated compound concentration (mu opiate receptor (MOR); [18]): 101.0%; MOR agonist activity, percent [35S]GTPγS binding at the stated compound concentration (mu opiate receptor (MOR); [19]): 81.4%; % DAMGO + BFNA (mu opiate receptor (MOR); [20]): 123.3%; % DAMGO (1 μM) (mu opiate receptor (MOR); [21]): 96.0%; MOR agonist activity, percent [35S]GTPγS binding at the stated compound concentration (mu opiate receptor (MOR); [22]): 256.5%
CC1CCC(C(C)C)C(OCC(O)CN2CCCCC2)C1 (stereo not drawn) [Compound A0005] | 179.7 | 105.0 | 239.2 | 23.5 | 45.1 | 89.6 | 34.2 | 38.2 | 43.8 | 
CC1CCC(C(C)C)C(OCC(O)CN2CCCCC2C)C1 (stereo not drawn) [Compound A0007] | 102.0 | 68.3 | 221.9 | 40.4 | 152.5 | 96.4 | 39.2 | 46.2 | 52.9 | 
O=S(=O)(c1ccc(Br)cc1)N1CCC2(CC1)OCCN2S(=O)(=O)c1ccc(Br)cc1 [Compound C0025] |  |  |  |  |  |  | 37.2 | 41.4 | 45.1 | % DAMGO (0.1 μM) (mu opiate receptor (MOR); [11]): 122.6%; Concentration of FLNA-Binding Compound as Agonist 0.1 μM (mu opiate receptor (MOR); [12]): 235.7%; Concentration of FLNA-Binding Compound as Agonist 1 μM + BFNA (mu opiate receptor (MOR); [13]): 80.2%; % DAMGO + BFNA (mu opiate receptor (MOR); [14]): 182.7%; % DAMGO (1 μM) (mu opiate receptor (MOR); [15]): 117.5%; Concentration of FLNA-Binding Compound as Agonist 1 μM (mu opiate receptor (MOR); [16]): 320.7%
COc1ccc(CCC(=O)CC2c3c(cc4c(c3OC)OCO4)CC[N+]2(C)C)cc1 (stereo not drawn) [Compound B0016] |  |  |  |  |  |  | 27.1 | 33.7 | 41.9 | % DAMGO (0.1 μM) (mu opiate receptor (MOR); [17]): 99.2%; MOR agonist activity, percent [35S]GTPγS binding at the stated compound concentration (mu opiate receptor (MOR); [18]): 167.7%; MOR agonist activity, percent [35S]GTPγS binding at the stated compound concentration (mu opiate receptor (MOR); [19]): 72.2%; % DAMGO + BFNA (mu opiate receptor (MOR); [20]): 109.4%; % DAMGO (1 μM) (mu opiate receptor (MOR); [21]): 79.9%; MOR agonist activity, percent [35S]GTPγS binding at the stated compound concentration (mu opiate receptor (MOR); [22]): 213.6%
CC1CCC(C(C)C)C(OCC(O)CN2CCCC2=O)C1 (stereo not drawn) [Compound A0035] | 120.6 | 61.5 | 158.8 | 88.6 | 119.9 | 57.5 |  |  |  | inhibition at 0.01 µM [1, 2]: 40.3%; inhibition at 0.1 µM [1, 3]: 45.5%; inhibition at 1 µM [1, 4]: 54.9%
CC1CCCC(OCC(O)CN2CC(C)OC(C)C2)C1 (stereo not drawn) [Compound A0021] | 133.3 | 79.8 | 275.3 | 12.1 | 34.9 | 112.4 |  |  |  | inhibition at 0.01 µM [1, 2]: 36.8%; inhibition at 0.1 µM [1, 3]: 43.4%; inhibition at 1 µM [1, 4]: 49.5%
CCN(CC)CC(O)COC1CC(C)CCC1C(C)C (stereo not drawn) [Compound A0032] | 226.9 | 115.6 | 257.8 | 133.0 | 180.0 | 93.4 | 43 | 50.3 | 54.5 | 
COc1c2c(cc3c1C(CC(=O)c1ccc(C#N)cc1)[N+](C)(C)CC3)OCO2 (stereo not drawn) [Compound B0001] |  |  |  |  |  |  | 37.1 | 48.8 | 54.3 | % DAMGO (0.1 μM) (mu opiate receptor (MOR); [17]): 77.4%; MOR agonist activity, percent [35S]GTPγS binding at the stated compound concentration (mu opiate receptor (MOR); [18]): 128.2%; MOR agonist activity, percent [35S]GTPγS binding at the stated compound concentration (mu opiate receptor (MOR); [19]): 28.0%; % DAMGO + BFNA (mu opiate receptor (MOR); [20]): 43.1%; % DAMGO (1 μM) (mu opiate receptor (MOR); [21]): 74.9%; MOR agonist activity, percent [35S]GTPγS binding at the stated compound concentration (mu opiate receptor (MOR); [22]): 202.3%
